The target in experiment [1] is Human immunodeficiency virus type 1 protease (Human immunodeficiency virus 1, UniProt Q72874). Briefly: Inhibitory activity against HIV-1 Protease.
A further experiment deals with MT4. Briefly: In vitro effective concentration against MT-4 cell line. Type of experiment: functional, cell-based. Particulars: Homo sapiens.

pEC50, pKi: −log10 of the molar value.

A word on the pKi: it is −log10 of the Ki, conventionally taken in molar units. A word on the pEC50: it is −log10 of the EC50, conventionally taken in molar units. Low readings indicate a large EC50, high ones a small EC50.

`O=C1N(Cc2ccc(CO)cc2)[C@H](Cc2ccccc2)[C@H](O)CN(Cc2ccccc2)N1Cc1ccc(CO)cc1` gave a pKi in experiment [1] of 9.66. In the experiment on MT4, this molecule showed a negative-log EC50 (pEC50) of 7.05.

With `O=C1N(Cc2ccc(CO)cc2)[C@H](Cc2ccccc2)[C@H](O)[C@@H](O)[C@@H](Cc2ccccc2)N1Cc1ccc(CO)cc1` [DMP-323], in experiment [1], the pKi was 9.64. The same molecule showed a negative-log EC50 (pEC50) in the experiment on MT4 of 7.52.

The molecule `COc1cc(CN2C(=O)N(CC3CC3)N(Cc3ccccc3)C[C@@H](O)[C@H]2Cc2ccccc2)ccc1O` showed a pKi in experiment [1] of 10.21. Also, the negative logarithm of the EC50 (pEC50) with MT4 is 6.77.

`COc1cc(CN2C(=O)N(Cc3ccc(O)c(OC)c3)N(Cc3ccccc3)C[C@@H](O)[C@H]2Cc2ccccc2)ccc1O` gave a pEC50 in the experiment on MT4 of 8.70.

Turning to `O=C1N(Cc2ccc(O)cc2)[C@H](Cc2ccccc2)[C@H](O)CN(Cc2ccccc2)N1Cc1ccc(O)cc1`, the pKi in experiment [1] is 10.15. This molecule showed a negative logarithm of the EC50 (pEC50) with MT4 of 8.00.

Consider `COc1cccc(CN2C(=O)N(Cc3cccc(OC)c3)N(Cc3ccccc3)C[C@@H](O)[C@H]2Cc2ccccc2)c1`, for which the pKi in experiment [1] was 9.66. This molecule also had a negative logarithm of the EC50 (pEC50) in the experiment with MT4 of 6.03.

`O=C1N(Cc2ccccc2)[C@H](Cc2ccccc2)[C@H](O)CN(Cc2ccccc2)N1Cc1ccccc1` had a negative logarithm of the Ki (pKi) in experiment [1] of 8.70. For the same molecule, the pEC50 in the experiment on MT4 was 5.54.

In experiment [1], `O=C1N(Cc2ccc(CO)cc2)[C@H](Cc2ccccc2)[C@H](O)CN(Cc2ccoc2)N1Cc1ccc(CO)cc1` gave a negative-log Ki (pKi) of 9.31. This molecule gave a pEC50 in the experiment with MT4 of 7.00.

The values are drawn from ChEMBL document CHEMBL1129048, “A novel, picomolar inhibitor of human immunodeficiency virus type 1 protease” (J Med Chem, 1996).
